Laboratory results published in patent US20080207614A1, “QUINAZOLINE DERIVATIVES FOR THE TREATMENT AND PREVENTION OF DIABETES AND OBESITY” (SK CHEMICALS CO., LTD., priority 2004, published 2008).

How the values were obtained:
[1] = tested on: AMPK; assay: Measurement of AMPK activity by Western blot in C2C12 cells; assay type: cell-based; set-up: AMPK activity (degree of phosphorylation of serine-79): unit not given here; details: 10 μM for 50 minutes; for AMPK activity (degree of phosphorylation of serine-79): footnote a: Western blot of serine-79 phosphorylation; for AMPK activity (class: degree of phosphorylation of threonine-172): strong/mild/weak
Protocol: C2C12 cells were cultured and differentiated in the same manner as in Experimental Example 1. Treatment with the test materials was also performed in the same manner as in Experimental Example 1 (10 μM for 50 minutes). The culture medium was removed and the cells were washed for 2 times with PBS and protein extracts were obtained using a lysis buffer (50 mM tris-HCl, pH 7.4, 1% NP-40, 0.25% sodium deoxycholate, 150 mM NaCl, 1 mM EDTA, 1 mM PMSF, 1 mM sodium o-vanadate, 1 mM NaF, 1 μg/mL apronitin, 1 μg/mL leu-peptin, 1 μg/mL pepstatin). The AMPK activity was determined from Western blot analysis of the degree of phosphorylation of serine-79 […] acetyl CoA carboxylase and the degree of phosphorylation of threonine-172. The amount of ERK (extracellular signal regulated protein kinase) was confirmed by Western blot in order to quantify the proteins.
The result of Western blot analysis is given in Table 3 below, wherein “strong” means that the degree of phosphorylation of threonine-172 increased by 3 times or more, “mild” means that the degree of phosphorylation of threonine-172 increased by 1 to 3 times and “weak” means that the degree of phosphorylation of threonine-172 increased by less than 1 time.

[2] = tested on: C2C12 muscle cells; assay: Analysis of glucose absorption (2-deoxyglucose) in differentiated C2C12 muscle cells; assay type: cell-based; details: test materials 10 μM, times relative to control group
In short: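 Differentiated C2C12 myotubes (6 days in 1% serum) held 3 h in KRB with 5 mM glucose, then given test material at 10 μM. After 30 min, 0.2 μCi 2-deoxyglucose added for 20 min; uptake measured by radioactive counting of NaOH lysates.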

Structure (SMILES)	AMPK activity (degree of phosphorylation of serine-79) [1]	Glucose absorption [2]	AMPK activity (class: degree of phosphorylation of threonine-172) [1]
CCSc1nc(NCCN2CCOCC2)c2ccccc2n1 [Compound 11, (2-Ethylsulfanylquinazolino-4-yl)-(2-morpholino-4-ylethyl)-amine]	3.2^a	1.0	
CCSc1nc(NCCc2cccc(C(F)(F)F)c2)c2ccccc2n1 [Compound 12, (2-Ethylsulfanylquinazolino-4-yl)-[2-(3-trifluoromethyl-phenyl)ethyl]-amine]	4.0^a	0.8	
O=[N+]([O-])c1ccc2ncnc(Nc3ccccc3)c2c1 [Compound 13, (6-Nitro-quinazolino-4-yl)-phenylamine]	4.2^a	0.7	
CCOc1cc2ncnc(NCc3cccc4ccccc34)c2cc1OCC [Compound 14, (6,7-Diethoxyquinazolino-4-yl)-naphthaleno-1-ylmethylamine]	3.6^a	1.2	
CCOc1cc2ncnc(NCCCN3CCOCC3)c2cc1OCC [Compound 15, (6,7-Diethoxyquinazolino-4-yl)-(3-morpholino-4-ylpropyl)-amine]	2.3^a	0.8	
C=CCNc1ncnc2cc(OCC)c(OCC)cc12 [Compound 16, Allyl-(6,7-diethoxyquinazolino-4-yl)-amine]	3.1^a	1.3	
CCOc1cc2ncnc(NCCc3ccccn3)c2cc1OCC [Compound 17, (6,7-Diethoxyquinazolino-4-yl)-(2-pyridino-2-ylethyl)-amine]	2.2^a	1.2	
CCOc1cc2ncnc(NCc3ccc(Cl)cc3)c2cc1OCC [Compound 18, (4-Chlorobenzyl)-(6,7-diethoxyquinazolino-4-yl)-amine]	6.0^a	1.0	
CCSc1nc(NC(C)CC)c2ccccc2n1 (stereo not shown) [Compound 20, sec-Butyl-(2-ethylsulfanylquinazolino-4-yl)-amine]		1.9	weak (“weak” means that the degree of phosphorylation of threonine-172 increased by less than 1 time)
CCSc1nc(NCc2ccccc2)c2ccccc2n1 [Compound 22, Benzyl-(2-Ethylsulfanylquinazolino-4-yl)-amine]		2.6	strong (“strong” means that the degree of phosphorylation of threonine-172 increased by 3 times or more)
CCSc1nc(NCc2cccc(OC)c2)c2ccccc2n1 [Compound 24, (2-Ethylsulfanylquinazolino-4-yl)-(3-methoxybenzyl)-amine]		2.8	strong (“strong” means that the degree of phosphorylation of threonine-172 increased by 3 times or more)
CCSc1nc(NCc2ccc(OC)cc2)c2ccccc2n1 [Compound 25, (2-Ethylsulfanylquinazolino-4-yl)-(4-methoxybenzyl)-amine]		2.6	strong (“strong” means that the degree of phosphorylation of threonine-172 increased by 3 times or more)
CCSc1nc(NCc2cccc(C(F)(F)F)c2)c2ccccc2n1 [Compound 26, (2-Ethylsulfanylquinazolino-4-yl)-(3-trifluoromethylbenzyl)-amine]		1.7	mild (“mild” means that the degree of phosphorylation of threonine-172 increased by 1 to 3 times)
CCSc1nc(NCCc2ccccc2)c2ccccc2n1 [Compound 29, (2-Ethylsulfanylquinazolino-4-yl)-phenethylamine]		1.6	mild (“mild” means that the degree of phosphorylation of threonine-172 increased by 1 to 3 times)
